Target: GRPR (Homo sapiens, UniProt P30550)
Test: lesion-level analysis, [68Ga]-NeoB PET versus conventional imaging
Assay type: in vivo
Parameters: from tissue; host or cells: tumour lesions in patients (breast, prostate, colorectal, NSCL, SCL cancer), in vivo
Procedure: PET/CT or PET/MRI imaging is performed after the compound 1 administration ideally at 2 h 30 min ±30 min.
The spleen is the reference region to assess pathological [68Ga]-NeoB uptake.
NeoB in patients with malignancies known to overexpress GRPR.

GRPR, sequence (P30550 whole entry): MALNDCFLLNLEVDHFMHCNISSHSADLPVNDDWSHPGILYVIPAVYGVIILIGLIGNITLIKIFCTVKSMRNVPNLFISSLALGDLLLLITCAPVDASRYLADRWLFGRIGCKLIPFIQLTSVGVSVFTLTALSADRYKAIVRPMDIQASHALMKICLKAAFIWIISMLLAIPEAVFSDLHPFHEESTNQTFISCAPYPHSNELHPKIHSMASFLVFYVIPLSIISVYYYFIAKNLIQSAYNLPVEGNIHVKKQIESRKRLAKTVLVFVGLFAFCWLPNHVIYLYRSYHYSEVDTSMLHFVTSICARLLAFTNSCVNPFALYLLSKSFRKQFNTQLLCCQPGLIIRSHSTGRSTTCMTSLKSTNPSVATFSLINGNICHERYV

## CC(C)CC(CC(C)C)NC(=O)[C@H](Cc1cnc[nH]1)NC(=O)CNC(=O)[C@@H](NC(=O)[C@H](C)NC(=O)[C@H](Cc1c[nH]c2ccccc12)NC(=O)[C@H](CCC(N)=O)NC(=O)[C@@H](Cc1ccccc1)NC(=O)COCC(=O)Nc1ccc(CNC(=O)CN2CCN(CC(=O)O)CCN(CC(=O)O)CCN(CC(=O)O)CC2)cc1)C(C)C [[68Ga]-NeoB, metal not drawn]
Breast N=5, [68Ga]-NeoB Negative, conventional imaging Positive
  Number of lesions: 44
Breast N=5, [68Ga]-NeoB Negative, conventional imaging Total
  Number of lesions: 44
Breast N=5, [68Ga]-NeoB Positive, conventional imaging Negative
  Number of lesions: 37
Breast N=5, [68Ga]-NeoB Positive, conventional imaging Positive
  Number of lesions: 48
Breast N=5, [68Ga]-NeoB Positive, conventional imaging Total
  Number of lesions: 85
Breast N=5, [68Ga]-NeoB Total, conventional imaging Negative
  Number of lesions: 37
Breast N=5, [68Ga]-NeoB Total, conventional imaging Positive
  Number of lesions: 92
Breast N=5, [68Ga]-NeoB Total, conventional imaging Total
  Number of lesions: 129
Breast cancer N=5
  lesions identified by conventional imaging also identified by [68Ga]-NeoB: 52.2%
Colorectal N=5, [68Ga]-NeoB Negative, conventional imaging Positive
  Number of lesions: 43
Colorectal N=5, [68Ga]-NeoB Negative, conventional imaging Total
  Number of lesions: 43
Colorectal N=5, [68Ga]-NeoB Positive, conventional imaging Negative
  Number of lesions: 0
Colorectal N=5, [68Ga]-NeoB Positive, conventional imaging Positive
  Number of lesions: 18
Colorectal N=5, [68Ga]-NeoB Positive, conventional imaging Total
  Number of lesions: 18
Colorectal N=5, [68Ga]-NeoB Total, conventional imaging Negative
  Number of lesions: 0
Colorectal N=5, [68Ga]-NeoB Total, conventional imaging Positive
  Number of lesions: 61
Colorectal N=5, [68Ga]-NeoB Total, conventional imaging Total
  Number of lesions: 61
Colorectal cancer N=5
  lesions identified by conventional imaging also identified by [68Ga]-NeoB: 29.5%
NSCL N=3, [68Ga]-NeoB Negative, conventional imaging Positive
  Number of lesions: 20
NSCL N=3, [68Ga]-NeoB Negative, conventional imaging Total
  Number of lesions: 20
NSCL N=3, [68Ga]-NeoB Positive, conventional imaging Negative
  Number of lesions: 0
NSCL N=3, [68Ga]-NeoB Positive, conventional imaging Positive
  Number of lesions: 10
NSCL N=3, [68Ga]-NeoB Positive, conventional imaging Total
  Number of lesions: 10
NSCL N=3, [68Ga]-NeoB Total, conventional imaging Negative
  Number of lesions: 0
NSCL N=3, [68Ga]-NeoB Total, conventional imaging Positive
  Number of lesions: 30
NSCL N=3, [68Ga]-NeoB Total, conventional imaging Total
  Number of lesions: 30
NSCL cancer N=3
  lesions identified by conventional imaging also identified by [68Ga]-NeoB: 33.3%
Prostate N=5, [68Ga]-NeoB Negative, conventional imaging Positive
  Number of lesions: 59
Prostate N=5, [68Ga]-NeoB Negative, conventional imaging Total
  Number of lesions: 59
Prostate N=5, [68Ga]-NeoB Positive, conventional imaging Negative
  Number of lesions: 1
Prostate N=5, [68Ga]-NeoB Positive, conventional imaging Positive
  Number of lesions: 10
Prostate N=5, [68Ga]-NeoB Positive, conventional imaging Total
  Number of lesions: 11
Prostate N=5, [68Ga]-NeoB Total, conventional imaging Negative
  Number of lesions: 1
Prostate N=5, [68Ga]-NeoB Total, conventional imaging Positive
  Number of lesions: 69
Prostate N=5, [68Ga]-NeoB Total, conventional imaging Total
  Number of lesions: 70
Prostate cancer N=5
  lesions identified by conventional imaging also identified by [68Ga]-NeoB: 14.5%
SCL N=1, [68Ga]-NeoB Negative, conventional imaging Positive
  Number of lesions: 1
SCL N=1, [68Ga]-NeoB Negative, conventional imaging Total
  Number of lesions: 1
SCL N=1, [68Ga]-NeoB Positive, conventional imaging Negative
  Number of lesions: 0
SCL N=1, [68Ga]-NeoB Positive, conventional imaging Positive
  Number of lesions: 1
SCL N=1, [68Ga]-NeoB Positive, conventional imaging Total
  Number of lesions: 1
SCL N=1, [68Ga]-NeoB Total, conventional imaging Negative
  Number of lesions: 0
SCL N=1, [68Ga]-NeoB Total, conventional imaging Positive
  Number of lesions: 2
SCL N=1, [68Ga]-NeoB Total, conventional imaging Total
  Number of lesions: 2
SCL cancer N=1
  lesions identified by conventional imaging also identified by [68Ga]-NeoB: 50%
Overall cancer N=19, Nodal, [68Ga]-NeoB Negative, conventional imaging Positive
  Number of lesions: 36
Overall cancer N=19, Nodal, [68Ga]-NeoB Negative, conventional imaging Total
  Number of lesions: 36
Overall cancer N=19, Nodal, [68Ga]-NeoB Positive, conventional imaging Negative
  Number of lesions: 1
Overall cancer N=19, Nodal, [68Ga]-NeoB Positive, conventional imaging Positive
  Number of lesions: 18
Overall cancer N=19, Nodal, [68Ga]-NeoB Positive, conventional imaging Total
  Number of lesions: 19
Overall cancer N=19, Nodal, [68Ga]-NeoB Total, conventional imaging Negative
  Number of lesions: 1
Overall cancer N=19, Nodal, [68Ga]-NeoB Total, conventional imaging Positive
  Number of lesions: 54
Overall cancer N=19, Nodal, [68Ga]-NeoB Total, conventional imaging Total
  Number of lesions: 55
Overall cancer N=19, Overall, [68Ga]-NeoB Negative, conventional imaging Positive
  Number of lesions: 167
Overall cancer N=19, Overall, [68Ga]-NeoB Negative, conventional imaging Total
  Number of lesions: 167
Overall cancer N=19, Overall, [68Ga]-NeoB Positive, conventional imaging Negative
  Number of lesions: 38
Overall cancer N=19, Overall, [68Ga]-NeoB Positive, conventional imaging Positive
  Number of lesions: 87
Overall cancer N=19, Overall, [68Ga]-NeoB Positive, conventional imaging Total
  Number of lesions: 125
Overall cancer N=19, Overall, [68Ga]-NeoB Total, conventional imaging Negative
  Number of lesions: 38
Overall cancer N=19, Overall, [68Ga]-NeoB Total, conventional imaging Positive
  Number of lesions: 254
Overall cancer N=19, Overall, [68Ga]-NeoB Total, conventional imaging Total
  Number of lesions: 292
Overall cancer N=19, Skeletal, [68Ga]-NeoB Negative, conventional imaging Positive
  Number of lesions: 85
Overall cancer N=19, Skeletal, [68Ga]-NeoB Negative, conventional imaging Total
  Number of lesions: 85
Overall cancer N=19, Skeletal, [68Ga]-NeoB Positive, conventional imaging Negative
  Number of lesions: 12
Overall cancer N=19, Skeletal, [68Ga]-NeoB Positive, conventional imaging Positive
  Number of lesions: 17
Overall cancer N=19, Skeletal, [68Ga]-NeoB Positive, conventional imaging Total
  Number of lesions: 29
Overall cancer N=19, Skeletal, [68Ga]-NeoB Total, conventional imaging Negative
  Number of lesions: 12
Overall cancer N=19, Skeletal, [68Ga]-NeoB Total, conventional imaging Positive
  Number of lesions: 102
Overall cancer N=19, Skeletal, [68Ga]-NeoB Total, conventional imaging Total
  Number of lesions: 114
Overall cancer N=19, Skin/Superficial, [68Ga]-NeoB Negative, conventional imaging Positive
  Number of lesions: 1
Overall cancer N=19, Skin/Superficial, [68Ga]-NeoB Negative, conventional imaging Total
  Number of lesions: 1
Overall cancer N=19, Skin/Superficial, [68Ga]-NeoB Positive, conventional imaging Negative
  Number of lesions: 0
Overall cancer N=19, Skin/Superficial, [68Ga]-NeoB Positive, conventional imaging Positive
  Number of lesions: 2
Overall cancer N=19, Skin/Superficial, [68Ga]-NeoB Positive, conventional imaging Total
  Number of lesions: 2
Overall cancer N=19, Skin/Superficial, [68Ga]-NeoB Total, conventional imaging Negative
  Number of lesions: 0
Overall cancer N=19, Skin/Superficial, [68Ga]-NeoB Total, conventional imaging Positive
  Number of lesions: 3
Overall cancer N=19, Skin/Superficial, [68Ga]-NeoB Total, conventional imaging Total
  Number of lesions: 3
Overall cancer N=19, Soft Tissus/Visceral, [68Ga]-NeoB Negative, conventional imaging Positive
  Number of lesions: 45
Overall cancer N=19, Soft Tissus/Visceral, [68Ga]-NeoB Negative, conventional imaging Total
  Number of lesions: 45
Overall cancer N=19, Soft Tissus/Visceral, [68Ga]-NeoB Positive, conventional imaging Negative
  Number of lesions: 25
Overall cancer N=19, Soft Tissus/Visceral, [68Ga]-NeoB Positive, conventional imaging Positive
  Number of lesions: 50
Overall cancer N=19, Soft Tissus/Visceral, [68Ga]-NeoB Positive, conventional imaging Total
  Number of lesions: 75
Overall cancer N=19, Soft Tissus/Visceral, [68Ga]-NeoB Total, conventional imaging Negative
  Number of lesions: 25
Overall cancer N=19, Soft Tissus/Visceral, [68Ga]-NeoB Total, conventional imaging Positive
  Number of lesions: 95
Overall cancer N=19, Soft Tissus/Visceral, [68Ga]-NeoB Total, conventional imaging Total
  Number of lesions: 120
Regardless the cancer type, N=19
  lesions identified by conventional imaging also identified by [68Ga]-NeoB: 34.3%
Soft tissue and visceral tissue regardless the cancer type
  lesions identified by conventional imaging also identified by [68Ga]-NeoB: 52.6%

From US20230321287A1, “RADIOLABELLED GRPR-ANTAGONIST FOR USE AS THERAGNOSTIC” (NOVARTIS AG, priority 2019, published 2023)
